Reference: US20030171347A1, “Sigma receptor antagonists having anti-cocaine properties and uses thereof” (priority 1998, published 2003)

Experiments:
Male, Swiss Webster mice [1] = test: Shift of the cocaine convulsion dose curve by sigma receptor agonists; settings: saline pre-treatment, cocaine 0-60 mg/kg i.p.
Male, Swiss Webster mice [2] = test: Attenuation of cocaine-induced locomotor activity; type: in vivo; settings: saline pre-treatment, cocaine 0-20 mg/kg i.p.
Male, Swiss Webster mice [3] = test: Dose response for the locomotor stimulatory effects of cocaine; type: in vivo; settings: cocaine 0-20 mg/kg i.p., 30 min
Male, Swiss Webster mice [4] = test: Dose response for the behavioral toxic effects of cocaine (convulsions, death)
[5] = after lethal dose of cocaine 125 mg/kg i.p.
[6] = cocaine alone 0-150 mg/kg i.p., observed 30 min

## COC(=O)[C@H]1[C@@H](OC(=O)c2ccccc2)C[C@@H]2CC[C@H]1N2C [cocaine]
Male, Swiss Webster mice [1]
  ED50 for cocaine-induced convulsions: 58 mg/kg, i.p.
Male, Swiss Webster mice [2]
  ED50 for the locomotor stimulatory effects of cocaine: 6 mg/kg, i.p.
Male, Swiss Webster mice [3]
  dose that produced the peak level of locomotor activity: 10 mg/kg, i.p.
Male, Swiss Webster mice [4]; [5]
  time at which mice are dead: about 4.5 minutes
  time at which mice begin convulsing: approximately 2 minutes
Male, Swiss Webster mice [4]; [6]
  ED50 for cocaine-induced convulsions: 59 mg/kg, i.p.
  LD50 for cocaine-induced lethality: 108 mg/kg, i.p.
